Results taken from the NIST ThermoML archive (doi:10.1021/je900387e).

Assay: xn = mol fraction of the nth substance listed
Settings: Liquid, Pycnometric method

Cn1ccnc1 [1-methylimidazole] + O=C=O
Settings | mass density [kg/m3]
308.2 K, 7790 kPa, x1 = 0.0247 | 745
308.2 K, 7860 kPa, x1 = 0.0102 | 638
308.2 K, 7870 kPa, x1 = 0.0102 | 640
308.2 K, 7900 kPa, x1 = 0.0102 | 646
308.2 K, 7940 kPa, x1 = 0.0102 | 652
308.2 K, 7950 kPa, x1 = 0.0102 | 655
308.2 K, 7970 kPa, x1 = 0.0247 | 755
308.2 K, 7980 kPa, x1 = 0.0102 | 661
308.2 K, 8020 kPa, x1 = 0.0102 | 667
308.2 K, 8080 kPa, x1 = 0.0102 | 676
308.2 K, 8160 kPa, x1 = 0.0102 | 686
308.2 K, 8200 kPa, x1 = 0.0247 | 766
308.2 K, 8260 kPa, x1 = 0.0102 | 696
308.2 K, 8380 kPa, x1 = 0.0102 | 706
308.2 K, 8470 kPa, x1 = 0.0247 | 777
308.2 K, 8520 kPa, x1 = 0.0102 | 716
308.2 K, 8590 kPa, x1 = 0.0487 | 838
308.2 K, 8680 kPa, x1 = 0.0487 | 841
308.2 K, 8690 kPa, x1 = 0.0102 | 727
308.2 K, 8790 kPa, x1 = 0.0487 | 844
308.2 K, 8820 kPa, x1 = 0.0247 | 790
308.2 K, 8910 kPa, x1 = 0.0102 | 738
308.2 K, 8910 kPa, x1 = 0.0487 | 847
308.2 K, 9040 kPa, x1 = 0.0487 | 849
308.2 K, 9150 kPa, x1 = 0.0102 | 750
308.2 K, 9150 kPa, x1 = 0.0487 | 852
308.2 K, 9250 kPa, x1 = 0.0247 | 802
308.2 K, 9290 kPa, x1 = 0.0487 | 853
308.2 K, 9440 kPa, x1 = 0.0102 | 761
308.2 K, 9450 kPa, x1 = 0.0487 | 858
308.2 K, 9600 kPa, x1 = 0.0487 | 860
308.2 K, 9750 kPa, x1 = 0.0247 | 815
308.2 K, 9750 kPa, x1 = 0.0487 | 863
308.2 K, 9800 kPa, x1 = 0.0102 | 773
308.2 K, 9850 kPa, x1 = 0.1024 | 937
308.2 K, 9920 kPa, x1 = 0.0487 | 866
308.2 K, 10030 kPa, x1 = 0.1024 | 939
308.2 K, 10130 kPa, x1 = 0.0247 | 824
308.2 K, 10200 kPa, x1 = 0.0102 | 786
308.2 K, 10360 kPa, x1 = 0.1024 | 942
308.2 K, 10560 kPa, x1 = 0.0247 | 833
308.2 K, 10630 kPa, x1 = 0.1024 | 945
308.2 K, 10700 kPa, x1 = 0.0102 | 799
308.2 K, 11000 kPa, x1 = 0.1024 | 948
308.2 K, 11070 kPa, x1 = 0.0247 | 842
308.2 K, 11250 kPa, x1 = 0.0102 | 812
308.2 K, 11310 kPa, x1 = 0.1024 | 951
308.2 K, 11620 kPa, x1 = 0.0247 | 851
308.2 K, 11710 kPa, x1 = 0.1024 | 954
308.2 K, 11920 kPa, x1 = 0.0102 | 826
308.2 K, 12010 kPa, x1 = 0.1024 | 956
308.2 K, 12240 kPa, x1 = 0.0247 | 860
308.2 K, 12460 kPa, x1 = 0.1024 | 960
308.2 K, 12590 kPa, x1 = 0.0247 | 865
308.2 K, 12610 kPa, x1 = 0.0102 | 840
308.2 K, 12820 kPa, x1 = 0.1024 | 963
308.2 K, 12940 kPa, x1 = 0.0247 | 870
308.2 K, 13250 kPa, x1 = 0.1024 | 966
308.2 K, 13310 kPa, x1 = 0.0247 | 875
308.2 K, 13440 kPa, x1 = 0.0102 | 859
308.2 K, 13690 kPa, x1 = 0.1024 | 969
308.2 K, 13720 kPa, x1 = 0.0247 | 880
308.2 K, 14140 kPa, x1 = 0.0247 | 885
308.2 K, 14140 kPa, x1 = 0.1024 | 972
308.2 K, 14560 kPa, x1 = 0.0102 | 875
308.2 K, 14570 kPa, x1 = 0.1024 | 975
308.2 K, 14610 kPa, x1 = 0.0247 | 890
308.2 K, 14990 kPa, x1 = 0.0102 | 880
308.2 K, 15060 kPa, x1 = 0.0247 | 895
308.2 K, 15080 kPa, x1 = 0.1024 | 978
308.2 K, 15430 kPa, x1 = 0.0102 | 886
308.2 K, 15540 kPa, x1 = 0.1024 | 981
308.2 K, 15600 kPa, x1 = 0.0247 | 901
308.2 K, 16080 kPa, x1 = 0.1024 | 984
308.2 K, 16570 kPa, x1 = 0.1024 | 987
308.2 K, 17250 kPa, x1 = 0.1024 | 991
308.2 K, 17650 kPa, x1 = 0.1024 | 994
308.2 K, 18340 kPa, x1 = 0.1024 | 998
308.2 K, 18880 kPa, x1 = 0.1024 | 1001
309.8 K, 8020 kPa, x1 = 0.0102 | 543
309.8 K, 8030 kPa, x1 = 0.0102 | 551
309.8 K, 8040 kPa, x1 = 0.0102 | 560
309.8 K, 8060 kPa, x1 = 0.0102 | 571
309.8 K, 8070 kPa, x1 = 0.0102 | 581
309.8 K, 8090 kPa, x1 = 0.0102 | 589
309.8 K, 8110 kPa, x1 = 0.0102 | 600
309.8 K, 8140 kPa, x1 = 0.0102 | 612
309.8 K, 8180 kPa, x1 = 0.0102 | 624
309.8 K, 8230 kPa, x1 = 0.0102 | 636
309.8 K, 8300 kPa, x1 = 0.0102 | 649
309.8 K, 8390 kPa, x1 = 0.0102 | 663
309.8 K, 8500 kPa, x1 = 0.0102 | 677
309.8 K, 8650 kPa, x1 = 0.0102 | 691
309.8 K, 8830 kPa, x1 = 0.0102 | 707
309.8 K, 9090 kPa, x1 = 0.0102 | 723
309.8 K, 9420 kPa, x1 = 0.0102 | 740
309.8 K, 9830 kPa, x1 = 0.0102 | 758
309.8 K, 10210 kPa, x1 = 0.0102 | 772
309.8 K, 10880 kPa, x1 = 0.0102 | 790
309.8 K, 11970 kPa, x1 = 0.0102 | 816
309.8 K, 12530 kPa, x1 = 0.0102 | 826
309.8 K, 13140 kPa, x1 = 0.0102 | 836
309.8 K, 13680 kPa, x1 = 0.0102 | 846
313.1 K, 8750 kPa, x1 = 0.0102 | 576
313.1 K, 8770 kPa, x1 = 0.0102 | 581
313.1 K, 8810 kPa, x1 = 0.0102 | 589
313.1 K, 8850 kPa, x1 = 0.0102 | 597
313.1 K, 8890 kPa, x1 = 0.0102 | 606
313.1 K, 8900 kPa, x1 = 0.0247 | 717
313.1 K, 8940 kPa, x1 = 0.0102 | 615
313.1 K, 8990 kPa, x1 = 0.0102 | 624
313.1 K, 9000 kPa, x1 = 0.0247 | 723
313.1 K, 9040 kPa, x1 = 0.0102 | 633
313.1 K, 9120 kPa, x1 = 0.0102 | 643
313.1 K, 9120 kPa, x1 = 0.0247 | 729
313.1 K, 9200 kPa, x1 = 0.0102 | 653
313.1 K, 9260 kPa, x1 = 0.0247 | 737
313.1 K, 9300 kPa, x1 = 0.0102 | 663
313.1 K, 9400 kPa, x1 = 0.0247 | 744
313.1 K, 9420 kPa, x1 = 0.0102 | 673
313.1 K, 9550 kPa, x1 = 0.0102 | 684
313.1 K, 9560 kPa, x1 = 0.0247 | 751
313.1 K, 9700 kPa, x1 = 0.0102 | 695
313.1 K, 9730 kPa, x1 = 0.0247 | 759
313.1 K, 9900 kPa, x1 = 0.0102 | 707
313.1 K, 9940 kPa, x1 = 0.0247 | 766
313.1 K, 10070 kPa, x1 = 0.0487 | 827
313.1 K, 10130 kPa, x1 = 0.0102 | 719
313.1 K, 10170 kPa, x1 = 0.0247 | 774
313.1 K, 10190 kPa, x1 = 0.0487 | 830
313.1 K, 10320 kPa, x1 = 0.0487 | 833
313.1 K, 10380 kPa, x1 = 0.0102 | 731
313.1 K, 10440 kPa, x1 = 0.0487 | 835
313.1 K, 10560 kPa, x1 = 0.0487 | 838
313.1 K, 10570 kPa, x1 = 0.0247 | 786
313.1 K, 10690 kPa, x1 = 0.0487 | 841
313.1 K, 10700 kPa, x1 = 0.0102 | 744
313.1 K, 10830 kPa, x1 = 0.0487 | 843
313.1 K, 10870 kPa, x1 = 0.0247 | 794
313.1 K, 10990 kPa, x1 = 0.0487 | 846
313.1 K, 11080 kPa, x1 = 0.0102 | 758
313.1 K, 11130 kPa, x1 = 0.0487 | 849
